Patent US9732077B2, “Diazepane orexin receptor antagonists” (MERCK SHARP & DOHME CORP., priority 2013, dated 2017)

What was measured:
[1] = target: T1, rat orexin-1 receptor (Rattus norvegicus, UniProt P56718); test: OX1R FLIPR Ca flux assay (CHO cells); type: cell-based; settings: CHO cells expressing rat orexin-1 receptor; agonist 70 pM Ala-6,12 orexin-A
T1 construct: expressed in transfected cells; host or cells: CHO cells (G418 selection)
T1 sequence (P56718 1-416): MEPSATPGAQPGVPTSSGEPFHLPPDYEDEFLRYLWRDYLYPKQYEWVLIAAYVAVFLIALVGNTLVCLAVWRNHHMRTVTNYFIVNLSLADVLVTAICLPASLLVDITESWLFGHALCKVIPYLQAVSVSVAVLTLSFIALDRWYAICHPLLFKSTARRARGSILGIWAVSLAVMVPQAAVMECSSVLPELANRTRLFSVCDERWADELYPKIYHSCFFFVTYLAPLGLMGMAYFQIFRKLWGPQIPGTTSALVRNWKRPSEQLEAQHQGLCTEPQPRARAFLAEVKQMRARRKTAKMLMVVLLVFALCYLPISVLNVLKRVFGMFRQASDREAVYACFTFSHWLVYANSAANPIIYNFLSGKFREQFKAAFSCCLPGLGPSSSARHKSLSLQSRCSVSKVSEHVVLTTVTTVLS
Description: (§1) The utility of the compounds in accordance with the present invention as orexin receptor OX1R and/or OX2R antagonists may be readily determined without undue experimentation by methodology well known in the art, including the “FLIPR Ca^+ Flux Assay” (Okumura et al., Biochem. Biophys. Res. Comm. 280:976-981, 2001). In a typical experiment the OX1 and OX2 receptor antagonistic activity of the compounds of the present invention was determined in accordance with the following experimental method. For intracellular calcium measurements, Chinese hamster ovary (CHO) cells expressing the rat orexin-1 receptor or the human orexin-2 receptor, are grown in Iscove's modified DMEM containing 2 mM L-glutamine, […], 1% hypoxanthine-thymidine supplement, 100 U/ml penicillin, 100 μg/ml streptomycin and 10% heat-inactivated fetal calf serum (FCS). The cells are seeded at 20,000 cells/well into Becton-Dickinson black 384-well clear bottom sterile plates coated with poly-D-lysine. All reagents were from GIBCO-Invitrogen Corp. The seeded plates are incubated overnight at 37° C. and 5% CO2. Ala-6,12 human orexin-A as the agonist is prepared as a 1 mM stock solution in 1% bovine serum albumin (BSA) and diluted in assay buffer (HBSS containing 20 mM HEPES, 0.1% BSA and 2.5 mM probenecid, pH7.4) for use in the assay at a final concentration of 70 pM. Test compounds are prepared as 10 mM stock solution in DMSO, then diluted in 384-well plates, first in DMSO, then assay buffer. On the day of the assay, cells are washed 3 times with 100 μl assay buffer and then incubated for 60 min (37° C., 5% CO2) in 60 μl assay buffer containing 1 μM Fluo-4AM ester, 0.02% pluronic acid, and 1% BSA. The dye loading solution is then aspirated and cells are washed 3 times with 100 μl assay buffer. 30 μl of that same buffer is left in each well. Within the Fluorescent Imaging Plate Reader (FLIPR, Molecular Devices), test compounds are added to the plate in a volume of 25 μl, incubated for 5 min and finally 25 μl of agonist is added. Fluorescence is measured for each well at 1 second intervals for 5 minutes and the height of each fluorescence peak is compared to the height of the fluorescence peak induced by 70 pM Ala-6,12 orexin-A with buffer in place of antagonist. For each antagonist, IC50 value (the concentration of compound needed to inhibit 50% of the agonist response) is determined. Alternatively, compound potency can be assessed by a radioligand binding assay (described in Bergman et. al. Bioorg. Med. Chem. Lett. 2008, 18, 1425-1430) in which the inhibition constant (Ki) is determined in membranes prepared from CHO cells expressing either the OX1 or OX2 receptor. The intrinsic orexin receptor antagonist activity of a compound which may be used in the present invention may be determined by these assays.

[2] = target: T2, human orexin-2 receptor (Homo sapiens, UniProt O43614); test: OX2R FLIPR Ca flux assay (CHO cells); type: cell-based; settings: for IC50: CHO cells expressing human orexin-2 receptor, agonist 70 pM Ala-6,12 orexin-A; for Fold Selectivity OX2R vs. OX1R: ratio of OX1R FLIPR to OX2R FLIPR
T2 construct: expressed in transfected cells; host or cells: CHO cells (G418 selection)
T2 sequence (O43614 1-444): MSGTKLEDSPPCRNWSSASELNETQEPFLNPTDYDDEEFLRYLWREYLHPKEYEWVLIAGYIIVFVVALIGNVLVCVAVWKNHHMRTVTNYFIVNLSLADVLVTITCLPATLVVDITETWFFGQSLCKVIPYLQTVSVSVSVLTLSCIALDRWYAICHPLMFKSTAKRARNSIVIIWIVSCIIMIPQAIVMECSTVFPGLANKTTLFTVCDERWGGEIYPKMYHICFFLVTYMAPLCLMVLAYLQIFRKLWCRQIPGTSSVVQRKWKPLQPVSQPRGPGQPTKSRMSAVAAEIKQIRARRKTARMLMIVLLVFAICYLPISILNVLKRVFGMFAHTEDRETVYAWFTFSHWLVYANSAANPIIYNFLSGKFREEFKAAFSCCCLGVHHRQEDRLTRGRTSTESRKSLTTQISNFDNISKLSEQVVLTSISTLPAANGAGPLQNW
Description: as §1

Row | IC50 [1] [nM] | IC50 [2] [nM] | Fold Selectivity OX2R vs. OX1R [2] [fold] | Structure (SMILES) | selectivity between orexin-2 receptor and orexin-1 receptor (in words) ([2]; comparison with diazepane compounds of WO 2007/126935, whole cell FLIPR functional assay)
1 | > 10000 | 36 | >277 | Cc1cc(C)nc(N2CCCN(C(=O)c3ccccc3OC(F)(F)F)CC2)n1 [Example 10, 1-(4,6-dimethylpyrimidin-2-yl)-4-{[2-(trifluoromethoxy)-phenyl]carbonyl}-1,4-diazepane] | 
2 | > 10000 | 216 | >46 | CC(C)(O)c1csc(N2CCCN(C(=O)c3ccccc3OC(F)(F)F)CC2)n1 [Example 24, (4-(4-(2-hydroxypropan-2-yl)thiazol-2-yl)-1,4-diazepan-1-yl)(2-(trifluoromethoxy)phenyl)meth-anone] | 
3 | 2700 | 28 | 96 | Cc1cc(C)nc(N2CCCN(C(=O)c3ccccc3-n3nccn3)CC2)n1 [Example 2, (2-(2H-1,2,3-triazol-2-yl)phenyl)(4-(4,6-dimethylpyrimidin-2-yl)-1,4-diazepan-1-yl)methanone] | 
4 | 2490 | 17 | 146 | Cc1oc(N2CCCN(C(=O)c3cccnc3OCC(F)(F)F)CC2)nc1C(C)(C)O [Example 17, 2-[5-methyl-2-(4-{[2-(2,2,2-trifluoroethoxy)pyridin-3-yl]carbonyl}-1,4-diazepan-1-yl)-1,3-oxazol-4-yl]propan-2-ol] | 
5 | > 10000 | 20 | >500 | Cc1cc(C)nc(N2CCCN(C(=O)c3cccnc3OCC(F)F)CC2)n1 [Example 6, 1-{[2-(2,2-difluoroethoxy)pyridin-3-yl]carbonyl}-4-(4,6-dimethylpyrimidin-2-yl)-1,4-diazepane] | 
6 | 1270 | 27 | 47 | Cc1oc(N2CCCN(C(=O)c3ccccc3-n3nccn3)CC2)nc1C(C)(C)O [Example 13, 2-[5-methyl-2-(4-{[2-(2H-1,2,3-triazol-2-yl)phenyl]carbonyl}-1,4-diazepan-1-yl)-1,3-oxazol-4-yl]propan-2-ol] | 
7 | 6170 | 18 | 343 | Cc1cc(C)nc(N2CCCN(C(=O)c3cccnc3OCC(F)(F)F)CC2)n1 [Example 1, (4-(4,6-dimethylpyrimidin-2-yl)-1,4-diazepan-1-yl)(2-(2,2,2-trifluoroethoxy)pyridin-3-yl)methanone] | 
8 | 1810 | 17 | 106 | Cc1cc(C)nc(N2CCCN(C(=O)c3ccccc3C3CC3)CC2)n1 [Example 9, 1-[(2-cyclopropylphenyl)-carbonyl]-4-(4,6-dimethylpyrimidin-2-yl)-1,4-diazepane] | 
9 | > 10000 | 41 | >244 | Cc1oc(N2CCCN(C(=O)c3cccnc3OC(C)C)CC2)nc1C(C)(C)O [Example 14, 2-[5-methyl-2-(4-{[2-(1-methylethoxy)pyridin-3-yl]carbonyl}-1,4-diazepan-1-yl)-1,3-oxazol-4-yl]propan-2-ol] | 
10 | 2900 | 20 | 145 | Cc1oc(N2CCCN(C(=O)c3ccc(F)cc3-n3nccn3)CC2)nc1C(C)(C)O [Example 18, 2-[2-(4-{[4-fluoro-2-(2H-1,2,3-triazol-2-yl)phenyl]carbonyl}-1,4-diazepan-1-yl)-5-methyl-1,3-oxazol-4-yl]propan-2-ol] | 
11 | 3240 | 19 | 170 | CCOc1ccccc1C(=O)N1CCCN(c2nc(C(C)(C)O)c(C)o2)CC1 [Example 19, 2-(2-{4-[(2-ethoxyphenyl)carbonyl]-1,4-diazepan-1-yl}-5-methyl-1,3-oxazol-4-yl)propan-2-ol] | 
12 | > 10000 | 108 | >92 | CC(C)(O)c1csc(N2CCCN(C(=O)c3ccccc3C3CC3)CC2)n1 [Example 25, (2-cyclopropylphenyl)(4-(4-(2-hydroxypropan-2-yl)thiazol-2-yl)-1,4-diazepan-1-yl)methanone] | 

The remaining lines, values behind:

Row | Structure (SMILES) | IC50 [1] [nM] | IC50 [2] [nM] | Fold Selectivity OX2R vs. OX1R [2] [fold] | selectivity between orexin-2 receptor and orexin-1 receptor (in words) ([2]; comparison with diazepane compounds of WO 2007/126935, whole cell FLIPR functional assay)
13 | Cc1oc(N2CCCN(C(=O)c3ccccc3-n3cccn3)CC2)nc1C(C)(C)O [Example 20, 2-[5-methyl-2-(4-{[2-(1H-pyrazol-1-yl)phenyl]carbonyl}-1,4-diazepan-1-yl)-1,3-oxazol-4-yl]propan-2-ol] | 6290 | 35 | 179 | 
14 | Cc1cc(C)nc(N2CCCN(C(=O)c3cccnc3OC(C)C)CC2)n1 [Example 4, 1-(4,6-dimethylpyrimidin-2-yl)-4-{[2-(1-methylethoxy)pyridin-3-yl]carbonyl}-1,4-diazepane] | > 10000 | 106 | >94 | 
15 | Cc1oc(N2CCCN(C(=O)c3ccccc3OC(F)(F)F)CC2)nc1C(C)(C)O [Example 15, 2-[5-methyl-2-(4-{[2-(trifluoromethoxy)phenyl]carbonyl}-1,4-diazepan-1-yl)-1,3-oxazol-4-yl]propan-2-ol] | 2880 | 21 | 137 | 
16 | Cc1cc(C)nc(N2CCCN(C(=O)c3ccc(F)cc3-n3nccn3)CC2)n1 [Example 3, 1-(4,6-dimethylpyrimidin-2-yl)-4-{[4-fluoro-2-(2H-1,2,3-triazol-2-yl)phenyl]carbonyl}-1,4-diazepane] | 4980 | 35 | 142 | 
17 | Cc1cc(C)nc(N2CCCN(C(=O)c3cccnc3-c3ccccc3)CC2)n1 [Example 11, 1-(4,6-dimethylpyrimidin-2-yl)-4-[(2-phenylpyridin-3-yl)carbonyl]-1,4-diazepane] | > 10000 | 166 | >60 | 
18 | CC(C)(O)c1csc(N2CCCN(C(=O)c3ccc(F)cc3-n3nccn3)CC2)n1 [Example 26, (4-fluoro-2-(2H-1,2,3-triazol-2-yl)phenyl)(4-(4-(2-hydroxypropan-2-yl)thiazol-2-yl)-1,4-diazepan-1-yl)methanone] | > 10000 | 136 | >73 | 
19 | Cc1cc(C)nc(N2CCCN(C(=O)c3ccccc3-n3cccn3)CC2)n1 [Example 8, 1-(4,6-dimethylpyrimidin-2-yl)-4-{[2-(1H-pyrazol-1-yl)phenyl]carbonyl}-1,4-diazepane] | > 10000 | 88 | >113 | 
20 | Cc1ccc(-n2nccn2)c(C(=O)N2CCCN(c3nc4ccccc4o3)CC2)c1 [Example B-3, reference compound] |  |  |  | greater selectivity for the orexin-1 receptor than for the orexin-2 receptor
